These results are taken from patent US20200023000A1, “SYNERGISM OF GOS AND POLYFRUCTOSE” (N.V. Nutricia, priority 2004, published 2020).

The subject of test [1] is distal and proximal part of the colon. Put plainly: Contraction of isolated colon segments in organ bath. On the set-up: species or system Male Wistar rats. The note with it: for Tension of tonic contractions (FIG. 5): increasing concentrations up to 100 mM, effect higher in distal than proximal colon. An excerpt: Male Wistar rats (CKP/Harlan, Wageningen/Horst, Netherlands) were housed under conditions of controlled temperature and light cycle and were provided free access to food pellets and water. Animals were anaesthetised by a mixture of N2O, O2 and isofluran, the abdomen was opened and the colon was removed immediately. The tissue was placed in Krebs-Henseleit buffer pH 7.4 (composition in mM: 118.0 NaCl, 4.75 KCl, 1.18 MgSO4, 2.5 CaCl2, 10 glucose, 1.17 KH2PO4 and 24.9 NaHCO3).
The colon was cut into a distal and a proximal portion and was rinsed with Krebs-Henseleit buffer while gently squeezing out faecal content. To approximate in vivo conditions as closely as possible, 1 cm fully intact segments were attached longitudinally to an isometric force transducer (F30 type 372, HSE, Germany) in 20 ml water-jacketed (37° C.) organ baths (Schuler, HSE, Germany) containing Krebs-Henseleit buffer gassed continuously with 95% O2-5% CO2. The segments were gradually stretched to a resting tension of 1 g and allowed to equilibrate for 45 minutes with intermittent washings. The tensions of the segments in rest and in response to different stimuli were amplified by a transducer amplifier module (HSE, Germany) and recorded on a multi-pen recorder (Rikadenki, HSE, Germany).
The segments were incubated with 40 mM KCl for 5 minutes and the contractile responses were measured. KCl was washed out by three consecutive washes at 5 minutes intervals. The segments were then incubated with increasing concentrations up to 100 mM of acetate or sodium-L-lactate. The acid solutions were prepared freshly in distilled water. NaOH was added to acetate to obtain a neutral pH. At the end of the incubation with a fatty acid, 40 mM KCl was added to determine whether the contractile response to KCl was influenced by the fatty acid. Before a new incubation the segments were allowed to equilibrate for 45 minutes in fresh Krebs-Henseleit buffer with intermittent washings.
The experimental protocol consisted of two proximal and two distal sections of the colon. For data analysis (n=3), the contraction level induced by the stimuli was defined as the tension in g after 5 minutes incubation. Data obtained from identical segments (proximal or distal) were used to calculate a mean value and each segment served as its own control sample.

The subject of test [2] is muc-2 expression in a CCD18/T84 co-culture. Put plainly: muc-2 expression in CCD18/T84 co-culture. The format is cell-based. The method, then: (§1) The effect of lactate and a SCFA mixture was analysed as described in Willemsen, L E M, Koetsier M A, van Deventer S J H, van Tol E A F (2003), Gut 52:1442-1447, with the following modifications: Lactate and a mixture of acetate/propionate/butyrate 90/5/5 was tested. For the mucus production experiments a co-culture of CCD18 and T84 cells was used, whereas for the PGE1 and PGE2 production experiments a monoculture of CCD18 cells was used.

The subject of test [3] is PGE1 and PGE2 response in CCD18 cells. The test is described as follows: Spontaneous PGE1 and PGE2 response in CCD18 cells. The note with it: n=7. Format: cell-based. As for the experimental part:
as §1

[4] abbreviates: proximal part of the colon, 25 mM.
The mark [5] stands for this setting: proximal part of the colon, concentrations higher than 25 mM.

The structures appear in SMILES notation.

For the compound `C[C@H](O)C(=O)[O-].[Na+]` [sodium-L-lactate], the “Number of spontaneous (phasic) contractions” value in test [1] (distal part of the colon) is “no effects are observed”; in test [1] (proximal part of the colon) it was “decrease”. Further, in test [1], the “Tension of tonic contractions (FIG. 5)” value was “decrease the tension of tonic contractions”. Further, the “Tonic contractions as a response to KCl” value in test [1] (setting [4]) is reported as “comparable in the presence or absence”; in test [1] (setting [5]), “significant relaxation”.

As for `C[C@H](O)C(=O)O` [L-lactate], the “Increase of muc-2 expression (FIG. 4a)” value in test [2] (at 0.5, 1 and 4 mM, n=6) is “statistically significant”. Moreover, the “MUC-2 expression, dose dependence (FIG. 4A)” value in test [2] (co-culture of CCD18 and T84 cells) is “dose dependently induces MUC-2 expression”. Moreover, in test [3] (at 100 μM), the “Increase of PGE1 (FIG. 4b)” value is listed as “statistically significant”. Besides, the “Increase of PGE2 (FIG. 4b)” value in test [3] (at 250 μM, P<0.05) is given as “statistically significant”.

Take `CC(=O)[O-].[Na+]` [sodium acetate, reference compound]: the “Number of spontaneous (phasic) contractions” value in test [1] (distal part of the colon) is reported as “no effects are observed”; in test [1] (proximal part of the colon), “decrease”. In addition, the “Tension of tonic contractions (FIG. 5)” value in test [1] is “decrease the tension of tonic contractions”. Besides, the “Tonic contractions as a response to KCl” value in test [1] (setting [4]) is listed as “comparable in the presence or absence”; in test [1] (setting [5]), “significant relaxation”.
